Data on two molecules can be found in patent publication US20080064754A1, “Amino ion releasing hydrogen bonded molecule” (priority 2006, published 2008).

One series deals with microcirculation. The format is in vivo. The source says:
This acceleration of microcirculation has many positive benefits.

The subject of series [1] is wounds, burns (of all degrees) and several types of chronic lesions. Put plainly: Wound healing, anecdotal preliminary experiment. The series is classed as in vivo.
In the next series the test system is inflammation. Nature of the series: Anti-inflammatory, anecdotal preliminary experiment. The series is classed as in vivo. Particulars: all forms of delivery.
Another series has as its system laboratory mice. Put plainly: LD-50 animal safety studies. The series is classed as in vivo. Particulars: oral feeding, intravenous infusion and inhalation, up to 50 percent liquid or 100 percent powder. The method, then: Applicant has tested the final reaction product in LD-50 animal (laboratory mice) studies. These studies were conducted with oral feeding, intravenous infusion and inhalation. […] (Applicant's testing facility was unable to kill the mice with very high concentrations (up to 50 percent liquid or 100 percent powder) of Applicant's Tri-Amino.

Series [2] in a line: Hygroscopicity of the powder. The format is physicochemical. The source says: Tri-Amino is a hygroscopic powder and as such is a valuable additive to moisturizing cosmetics.
For series [3] the following is noted: cited from earlier work.

Regarding “2-amino 5-triaminoguanidovalericbenzoicdiacetate [Tri-Amino]”, in the series with microcirculation (in vivo), the “toxic side effects on acceleration of microcirculation” value is “without toxic side effects”. For the same molecule, in the series with microcirculation (topically or internally, anecdotal, preliminary), the vaso-dilating qualities result is listed as “exhibited vaso-dilating qualities”. In series [1], the “healing of wounds, burns and chronic lesions” value was “ability to aid and accelerate the healing of wounds, burns (of all degrees) and several types of chronic lesions”; the lesions healed entry is listed as “radiation burns (third degree with complete suppression of scar formation), squamous cell carcinoma, basal cell carcinoma, psoriasis, venous stasis ulcers, decubitus ulcers (bed sores), deep surgical wounding (with suppression of scar formation), oral & genital herpes”. In the series on inflammation, the anti-inflammatory qualities entry was “shown anti-inflammatory qualities”. Further, the “toxicity in LD-50 studies” value in the series with laboratory mice is “no toxicity what-so-ever”. Moreover, the hygroscopicity result in series [2] is “hygroscopic”.

As to `Nc1ccc(C(=O)O)cc1` [PABA, p-aminobenzoic acid], the solubility in water entry in series [3] is given as “slightly soluble in water”.
